# Values quoted from earlier work as cited in patent US20130143937A1, “CHLORTHALIDONE COMBINATIONS” (Boehringer Ingelheim International GmbH, priority 2003, published 2013).
# Details: in vivo
row,mean plasma half-life,SMILES
1,40 to 60 h,"NS(=O)(=O)c1cc(C2(O)NC(=O)c3ccccc32)ccc1Cl (centres unmarked) [chlorthalidone, 2-chloro-5-(2,3-dihydro-1-hydroxy-3-oxo-1h-isoindol-1-yl)benzene-sulfonamide]"
2,about 24 hours,NS(=O)(=O)c1cc2c(cc1Cl)NCNS2(=O)=O [hydrochlorothiazide]
